From patent US20250230193A1, “CYCLIC COMPOUND HAVING SELECTIVE KRAS INHIBITORY EFFECT ON HRAS AND NRAS” (CHUGAI SEIYAKU KABUSHIKI KAISHA, priority 2022, published 2025)
*1 amine or outer side, *2 acyl side, *3 side chain or, on linkers, in order; H or OH if unused. Where a SMILES comes first, the peptide text is derived from it. Bridges are numbered along the chain shown (N, C = ends). [ ]: non-standard residue; d: D form. The star is where a group is joined. hPhe(3-Cl-4-CF3) = N[C@@H](CCc1ccc(C(F)(F)F)c(Cl)c1)C(=O)O; X32 = COCCN([C@@H](Cc1ccc(C(F)(F)F)cc1)C(=O)[*:2])[*:1]; NPrPhe(4-CF3) = CCCN[C@@H](Cc1ccc(C(F)(F)F)cc1)C(=O)O; NMeGly(cPent) = CN[C@H](C(=O)O)C1CCCC1; Piperidide(4-Me) = CC1CCN(*)CC1; NMeD = CN[C@@H](CC(=O)O)C(=O)O; NMeL = CN[C@@H](CC(C)C)C(=O)O; Morpholide = C1CN(*)CCO1; Ac5c = NC1(C(=O)O)CCCC1; Sar = CNCC(=O)O

Experiments:
[1] = biological target: GDP-bound NRAS wild-type protein (Homo sapiens, UniProt P01111); assay: Binding to NRAS by surface plasmon resonance (SPR), Single Cycle Kinetics; details: SPR; for NRAS/KRAS (ratio of KD value with respect to NRAS to KD value with respect to KRAS) / NRAS/KRAS (ratio of KD value for NRAS to KD value for KRAS): GDP-bound NRAS wild-type vs GDP-bound KRAS wild-type
[2] = biological target: GDP-bound HRAS wild-type protein (Homo sapiens, UniProt P01112); assay: Binding to HRAS by surface plasmon resonance (SPR), Single Cycle Kinetics; details: SPR; for HRAS/KRAS (ratio of KD value with respect to HRAS to KD value with respect to KRAS) / HRAS/KRAS (ratio of KD value for HRAS to KD value for KRAS): GDP-bound HRAS wild-type vs GDP-bound KRAS wild-type
Sequence of GDP-bound HRAS wild-type protein (P01112 whole entry): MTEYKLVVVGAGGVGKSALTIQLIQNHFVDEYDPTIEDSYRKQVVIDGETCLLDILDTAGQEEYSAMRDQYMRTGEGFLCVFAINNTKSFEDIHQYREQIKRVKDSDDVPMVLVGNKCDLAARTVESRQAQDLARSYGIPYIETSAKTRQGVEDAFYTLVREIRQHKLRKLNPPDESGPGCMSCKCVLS

Sequence of GDP-bound NRAS wild-type protein (P01111 whole entry): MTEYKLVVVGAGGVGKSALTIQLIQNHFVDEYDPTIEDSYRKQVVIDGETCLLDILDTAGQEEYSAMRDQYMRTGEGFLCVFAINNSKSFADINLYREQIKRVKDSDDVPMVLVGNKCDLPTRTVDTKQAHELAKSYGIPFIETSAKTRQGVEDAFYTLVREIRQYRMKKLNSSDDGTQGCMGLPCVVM

## CC[C@H](C)[C@@H]1NC(=O)[C@H](COC)N(C)C(=O)C[C@@H](C(=O)N(CC)CC)N(C)C(=O)[C@H](C2CCCC2)N(C)C(=O)C2(CC(C)(C)C2)NC(=O)[C@@H]2C[C@H](C)CN2C(=O)[C@H](CCc2cc(F)c(C(F)(F)F)c(F)c2)NC(=O)CN(C)C(=O)[C@H](Cc2ccc(C)cc2)N2CC/C=C\C[C@@H](C2=O)N(C)C(=O)CN(C)C1=O [PP2455]
[1]
  NRAS/KRAS (ratio of KD value with respect to NRAS to KD value with respect to KRAS): AA (a compound having 20 or more is denoted as AA)
[2]
  HRAS/KRAS (ratio of KD value with respect to HRAS to KD value with respect to KRAS): A (a compound having 10 or more and less than 20 is denoted as A)

## CC[C@H](C)[C@@H]1NC(=O)[C@H](CC(C)C)N(C)C(=O)C[C@@H](C(=O)N2CCOCC2)N(C)C(=O)[C@H](C2CCCC2)N(C)C(=O)C2(CCCC2)NC(=O)[C@@H]2CCCN2C(=O)[C@H](CCc2ccc(C(F)(F)F)c(Cl)c2)NC(=O)CN(C)C(=O)[C@H](Cc2ccc(C(F)(F)F)cc2)N(CCOC)C(=O)CN(C)C(=O)CN(C)C1=O [PP0132] ([NMeL]I[Sar][Sar][X32][Sar][hPhe(3-Cl-4-CF3)]P[Ac5c][NMeGly(cPent)][NMeD]-Morpholide; lactam N-11)
[1]
  NRAS/KRAS (ratio of KD for GDP-bound NRAS wild-type to KD for KRAS): C (A compound having a KD ratio of 0.1 or more and less than 3 is denoted as C)
[2]
  HRAS/KRAS (ratio of KD for GDP-bound HRAS wild-type to KD for KRAS): C (A compound having a KD ratio of 0.1 or more and less than 3 is denoted as C)

## CCCN1C(=O)CN(C)C(=O)CN(C)C(=O)[C@H]([C@@H](C)CC)NC(=O)[C@H](CC(C)C)N(C)C(=O)C[C@@H](C(=O)N2CCC(C)CC2)N(C)C(=O)[C@H](C2CCCC2)N(C)C(=O)C2(CCCC2)NC(=O)[C@@H]2CCCN2C(=O)[C@H](CCc2ccc(C(F)(F)F)c(Cl)c2)NC(=O)CN(C)C(=O)[C@@H]1Cc1ccc(C(F)(F)F)cc1 [PP0176] ([NMeL]I[Sar][Sar][NPrPhe(4-CF3)][Sar][hPhe(3-Cl-4-CF3)]P[Ac5c][NMeGly(cPent)][NMeD]-{Piperidide(4-Me)}; lactam N-11)
[1]
  NRAS/KRAS (ratio of KD for GDP-bound NRAS wild-type to KD for KRAS): B (a compound having 3 or more and less than 10 is denoted as B)
[2]
  HRAS/KRAS (ratio of KD for GDP-bound HRAS wild-type to KD for KRAS): C (A compound having a KD ratio of 0.1 or more and less than 3 is denoted as C)

## CC[C@H](C)[C@@H]1NC(=O)[C@H](CC(C)C)N(C)C(=O)C[C@@H](C(=O)N2CCOCC2)N(CC)C(=O)[C@H](C2CCCC2)N(C)C(=O)C2(CCC2)NC(=O)[C@@H]2CC(F)(F)CN2C(=O)[C@H](CCc2cc(F)c(C(F)(F)F)c(F)c2)NC(=O)CN(C)C(=O)[C@H](Cc2ccc(C(F)(F)F)cc2)N2CCCCC[C@@H](C2=O)N(C)C(=O)CN(C)C1=O [PP0954]
[1]; KD ratio
  NRAS/KRAS (ratio of KD value with respect to NRAS to KD value with respect to KRAS): A (a compound having 10 or more and less than 20 is denoted as A)
[2]; KD ratio
  HRAS/KRAS (ratio of KD value with respect to HRAS to KD value with respect to KRAS): A (a compound having 10 or more and less than 20 is denoted as A)

## CCCC[C@H]1C(=O)N[C@@H]([C@@H](C)CC)C(=O)N(C)CC(=O)N(C)[C@H]2C/C=C\CCN(C2=O)[C@@H](Cc2ccc(C(F)(F)F)cc2)C(=O)N(C)CC(=O)N[C@@H](CCc2cc(F)c(C(F)(F)F)c(F)c2)C(=O)N2C[C@@H](C)C[C@H]2C(=O)NC2(CC(C)(C)C2)C(=O)N(C)[C@@H](C2CCCC2)C(=O)N(C)[C@H](C(=O)N(C)C)CC(=O)N1C [PP1661]
[1]; KD ratio
  NRAS/KRAS (ratio of KD value for NRAS to KD value for KRAS): A (a compound having 10 or more and less than 20 is denoted as A)
[2]; KD ratio
  HRAS/KRAS (ratio of KD value for HRAS to KD value for KRAS): A (a compound having 10 or more and less than 20 is denoted as A)

## CC[C@H](C)[C@@H]1NC(=O)[C@H](CC)N(C)C(=O)C[C@@H](C(=O)N(C)C)N(C)C(=O)[C@H](C2CCCC2)N(C)C(=O)C2(CCC2)NC(=O)CN(CC)C(=O)[C@H](CCc2cc(F)c(C(F)(F)F)c(F)c2)NC(=O)CN(C)C(=O)[C@H](Cc2ccc(C(F)(F)F)cc2)N2CC/C=C\C[C@@H](C2=O)N(C)C(=O)CN(C)C1=O [PP1143]
[1]; KD ratio
  NRAS/KRAS (ratio of KD value with respect to NRAS to KD value with respect to KRAS): A (a compound having 10 or more and less than 20 is denoted as A)
[2]; KD ratio
  HRAS/KRAS (ratio of KD value with respect to HRAS to KD value with respect to KRAS): A (a compound having 10 or more and less than 20 is denoted as A)

## CCO[C@@H]1C[C@H]2C(=O)N(C)C3(CCC3)C(=O)N(C)[C@@H](C3CCCC3)C(=O)N(C)[C@H](C(=O)N(C)C)CC(=O)N(C)[C@@H](CC)C(=O)N[C@@H]([C@@H](C)CC)C(=O)N(C)CC(=O)N(C)[C@H]3C/C=C\CCN(C3=O)[C@@H](Cc3ccc(C(F)(F)F)cc3)C(=O)N(C)CC(=O)N[C@@H](CCc3cc(F)c(C(F)(F)F)c(F)c3)C(=O)N2C1 [PP1779]
[1]; KD ratio
  NRAS/KRAS (ratio of KD value for NRAS to KD value for KRAS): A (a compound having 10 or more and less than 20 is denoted as A)
[2]; KD ratio
  HRAS/KRAS (ratio of KD value for HRAS to KD value for KRAS): B (a compound having 3 or more and less than 10 is denoted as B)
